Results from PubChem BioAssay (NCI).
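Values below derive from 48-hour exposures of cells grown in 96-well plates, with endpoints linearly interpolated between the two concentrations bracketing the appropriate inhibition level. GI50 marks 50% less growth. TGI is the concentration that stops growth completely.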

Key:
Test in all cases: DTP human tumour cell line panel, 48 h
[1] = test system: U251 CNS
[2] = test system: CCRF-CEM leukemia
[3] = test system: SK-MEL-5 melanoma
[4] = test system: NCI-H460 lung
[5] = test system: SF-295 CNS
[6] = test system: MALME-3M melanoma
[7] = test system: RXF 393 renal
[8] = test system: NCI-H226 lung

Compound	GI50 [1]	TGI [1]	GI50 [2]	TGI [2]	GI50 [3]	TGI [3]	GI50 [4]	TGI [4]	GI50 [5]	TGI [5]	GI50 [6]	TGI [6]	GI50 [7]	TGI [7]	GI50 [8]	TGI [8]
CCN(Cc1ccc(F)cc1)c1ccc(CO)c(C(F)(F)F)c1	4.1 µM	18.4 µM	14.7 µM	43.7 µM	13.9 µM	26.8 µM	3.43 µM	15.7 µM	3.3 µM	16.5 µM	15.5 µM	30.3 µM	14.9 µM	28.3 µM	–	–
CC(=O)Nc1ccc(S(=O)(=O)NN(C)S(=O)(=O)c2ccc(C)cc2)cc1	–	–	–	> 100 µM	–	> 100 µM	–	> 100 µM	–	> 100 µM	–	> 100 µM	–	> 100 µM	–	–
C=C1C(=O)O[C@H]2[C@H]1CC/C(COC(=O)NCc1c[nH]c3ccc(F)cc13)=C\CC[C@@]1(C)O[C@@H]21	2.35 µM	5.81 µM	0.302 µM	1.2 µM	1.69 µM	3.11 µM	2.4 µM	6.03 µM	4.29 µM	16.6 µM	1.66 µM	3.32 µM	1.53 µM	3 µM	1.74 µM	3.3 µM
CN(C)CCCn1c2c(c3cc4c(cc3c1=O)OCO4)C(=O)c1ccccc1-2	0.081 µM	3.5 µM	0.192 µM	3.51 µM	1.93 µM	7.07 µM	8.82 µM	> 32.8 µM	3.12 µM	12.5 µM	–	–	0.852 µM	8.93 µM	3.25 µM	11.3 µM
COCCOCCOCCOCCOC(=O)OC[n+]1ccc(NC(=NCCCCCCOc2ccc(Cl)cc2)NC#N)cc1	–	18.7 µM	< 0.01 µM	15 µM	1.43 µM	11.6 µM	0.124 µM	19.2 µM	< 0.0418 µM	12.5 µM	12.1 µM	29.5 µM	7.44 µM	22.3 µM	12.7 µM	30.4 µM
COc1ccc2c(c1)C(=O)c1c-2c(=O)n(CCCN(C)C)c2cc(OC)c(OC)cc12	1.23 µM	18.9 µM	0.05 µM	12.2 µM	86.1 µM	> 100 µM	0.273 µM	11.4 µM	0.158 µM	0.774 µM	–	–	11.2 µM	23.6 µM	3.39 µM	> 100 µM
CC1CCN(CCOc2ccc(CNc3ccc4nc(CCC5CCCCC5)[nH]c4c3)cc2)CC1	1.44 µM	2.85 µM	1.72 µM	6.41 µM	1.7 µM	3.08 µM	1.72 µM	3.34 µM	1.87 µM	3.46 µM	1.71 µM	3.17 µM	1.33 µM	2.84 µM	1.63 µM	3.48 µM
O=S(=O)(O)c1ccc2cc3nn(-c4ccc(/C=C/c5ccc(-n6nc7cc8ccc(S(=O)(=O)O)cc8cc7n6)cc5S(=O)(=O)O)c(S(=O)(=O)O)c4)nc3cc2c1	50.3 µM	> 100 µM	30.8 µM	> 100 µM	94.7 µM	> 100 µM	50.9 µM	> 100 µM	> 100 µM	> 100 µM	> 100 µM	> 100 µM	> 100 µM	> 100 µM	> 100 µM	> 100 µM
COc1ccc(/C=N\Nc2nc(SCC(C)C)nc(-c3ccc(OC)cc3)c2C#N)cc1	0.988 µM	14.9 µM	9.78 µM	> 100 µM	13.6 µM	51.2 µM	0.548 µM	11 µM	8.58 µM	28 µM	10.2 µM	47.9 µM	2.81 µM	15.8 µM	10.5 µM	49.7 µM
CCOC(=O)C(Cc1ccc(N(CCCl)CCCl)cc1)NC(=O)C(Cc1ccccc1)NC(C)=O (stereo unspecified)	–	> 0.787 µM	–	0.213 µM	–	> 0.486 µM	–	> 0.553 µM	–	> 0.501 µM	–	–	–	0.259 µM	–	> 1 µM
COc1cc2c(cc1NC(=O)C(Cl)Cl)-c1ccc(NC(=O)C(Cl)Cl)cc1C2	0.245 µM	0.708 µM	12.1 µM	98.6 µM	4.35 µM	18.3 µM	0.25 µM	0.69 µM	0.371 µM	1.12 µM	14 µM	31.6 µM	0.429 µM	1.66 µM	6.04 µM	17.1 µM
COc1ccc2nc3cc(Cl)ccc3c(N3CCN(c4ccnc(N5CCN(C)CC5)n4)CC3)c2c1	1.77 µM	3.43 µM	1.61 µM	4.15 µM	11.3 µM	28 µM	2.29 µM	5.43 µM	19.5 µM	54.1 µM	2.2 µM	4 µM	1.36 µM	2.78 µM	49.6 µM	> 100 µM
O=C1/C(=C/c2ccccc2[N+](=O)[O-])COc2ccc(O)cc21	2.41 µM	8.74 µM	0.326 µM	2.52 µM	1.76 µM	4.07 µM	2.1 µM	5.04 µM	7.13 µM	25.6 µM	1.65 µM	4.62 µM	1.23 µM	3.02 µM	2.4 µM	10.9 µM
CSC1=Nc2c(c(C)c(-c3ccccc3)n2COC(CO)CO)C2=NC(=O)CN12	> 100 µM	> 100 µM	> 100 µM	> 100 µM	> 100 µM	> 100 µM	> 100 µM	> 100 µM	> 100 µM	> 100 µM	> 100 µM	> 100 µM	> 100 µM	> 100 µM	88.2 µM	> 100 µM
COc1ccc(-c2c3c(N)c4c(nc3nc3c2c(C)nn3-c2ccccc2)CCCC4)cc1	1.72 µM	3.56 µM	2.18 µM	6.86 µM	1.84 µM	3.85 µM	3.28 µM	11.3 µM	10.1 µM	23.3 µM	–	–	8.48 µM	26.7 µM	19.6 µM	52.5 µM
O=c1[nH]c(=S)[nH]c(-c2ccccc2)c1Cc1c(O)ccc2ccccc12	–	> 100 µM	–	41 µM	–	43.8 µM	–	> 100 µM	–	> 100 µM	–	> 100 µM	–	95.1 µM	–	82.1 µM
Cc1ccc(Cl)cc1-n1c(C)nc2c(cnn2-c2ccnc3c(C(F)(F)F)cccc23)c1=O	> 100 µM	> 100 µM	> 100 µM	> 100 µM	> 100 µM	> 100 µM	> 100 µM	> 100 µM	> 100 µM	> 100 µM	> 100 µM	> 100 µM	> 100 µM	> 100 µM	> 100 µM	> 100 µM
Fc1ccc2nc(-c3nc(-c4ccccc4)n4ccccc34)[nH]c2c1	2.22 µM	5.42 µM	5.28 µM	> 100 µM	1.55 µM	3.49 µM	2.07 µM	5.2 µM	–	–	2.06 µM	4.33 µM	2.99 µM	10.2 µM	1.8 µM	5.8 µM

Compound	GI50 [1]	TGI [1]	GI50 [2]	TGI [2]	GI50 [3]	TGI [3]	GI50 [4]	TGI [4]	GI50 [5]	TGI [5]	GI50 [6]	TGI [6]	GI50 [7]	TGI [7]	GI50 [8]	TGI [8]
C[P+]1(c2ccccc2)CCCCC1	–	> 100 µM	–	> 100 µM	–	> 100 µM	–	> 100 µM	–	> 100 µM	–	> 100 µM	–	> 100 µM	–	–
C=CC[N+]1(CC)CCN=C1CCCCCCCCCCCCCCCCC (stereo unspecified)	0.386 µM	1.47 µM	–	–	0.355 µM	1.3 µM	0.429 µM	1.46 µM	0.249 µM	0.936 µM	–	–	0.205 µM	0.836 µM	–	–
CN1CCCC1c1cccnc1.O=C(O)c1ccccc1O.O=C([O-])c1ccccc1[OH2+].O=C([O-])c1ccccc1[OH2+].[Mn+2] (stereo unspecified)	> 100 µM	> 100 µM	24.8 µM	97.8 µM	> 100 µM	> 100 µM	–	–	> 100 µM	> 100 µM	33.1 µM	76.6 µM	> 100 µM	> 100 µM	> 100 µM	> 100 µM
c1ccc(CN2COc3c(ccc4c5c(ccc34)CN(Cc3ccccc3)CO5)C2)cc1	–	> 100 µM	–	> 100 µM	–	> 100 µM	–	> 100 µM	–	> 100 µM	–	> 100 µM	–	> 100 µM	–	> 100 µM
O=C(c1c(O)cc(O)cc1O)C1Cc2ccccc21 (stereo unspecified)	–	> 100 µM	–	> 100 µM	–	> 100 µM	–	> 100 µM	–	> 100 µM	–	> 100 µM	–	> 100 µM	–	> 100 µM
COc1cc(/C=C/C(=O)O[C@H]2[C@H](O[C@@H]3O[C@@H](C)[C@H](O)[C@@H](O)[C@H]3O)[C@@H](O)[C@H](OCCc3ccc(O)c(O)c3)O[C@@H]2COC2OCC(O)(CO)C2O)ccc1O (stereo partly specified)	> 100 µM	> 100 µM	–	–	> 100 µM	> 100 µM	> 100 µM	> 100 µM	> 100 µM	> 100 µM	–	–	> 100 µM	> 100 µM	> 100 µM	> 100 µM
N#Cc1cc2c(cc1Cl)Sc1nnc(Nc3cccc4ccccc34)n1S2(=O)=O	3.23 µM	10.7 µM	–	–	3.95 µM	15.7 µM	13.8 µM	33.8 µM	16.8 µM	31.8 µM	2.03 µM	5.75 µM	2.02 µM	4.15 µM	7.83 µM	20.9 µM
O=C1/C(=C/c2ccccc2O)N=C(c2ccccc2)N1c1cc(C(F)(F)F)ccc1Cl	23.3 µM	61.9 µM	–	–	62.2 µM	> 100 µM	> 100 µM	> 100 µM	23.2 µM	52.6 µM	46.7 µM	> 100 µM	29.9 µM	81.3 µM	33 µM	> 100 µM
COC1=C(OC)C(=O)C(CCCCCCCCCCO)=C(C)C1=O	3.03 µM	12.5 µM	3.15 µM	20.4 µM	5.92 µM	19.1 µM	14.8 µM	34.9 µM	–	–	7.47 µM	21.8 µM	10.1 µM	23.9 µM	13.8 µM	29.9 µM
Cc1cc2c(c(=O)o1)C1=S(SC(c3ccccc3)=C1)S2 (stereo unspecified)	–	57.2 µM	–	> 100 µM	–	> 100 µM	–	> 100 µM	–	88 µM	–	86.7 µM	–	50.1 µM	–	–
C=CC(=O)N[C@@H](/C=C/C(=O)OCC)Cc1ccc(-c2cc(Cl)cc(Cl)c2)cc1	17.2 µM	> 100 µM	–	–	4.46 µM	17.5 µM	11.2 µM	32.8 µM	13.5 µM	83.5 µM	10.9 µM	34.1 µM	7.96 µM	35.3 µM	16.7 µM	71.7 µM
Clc1ccc([I+]c2ccc(Cl)cc2Cl)c(Cl)c1	1.77 µM	3.38 µM	2.09 µM	5.32 µM	6.04 µM	20.3 µM	2.35 µM	5.39 µM	2.58 µM	7.57 µM	1.73 µM	3.61 µM	–	–	–	–
COC1=C(OC)[C@]2(OC)c3c(O)c(OC)c4c(c3O[C@@]23O[C@@H](c2ccccc2)CC=C3C1=O)[C@@H](OC)C[C@H](c1ccccc1)O4	1.41 µM	2.74 µM	0.0173 µM	0.0631 µM	0.739 µM	1.96 µM	1.09 µM	2.56 µM	1.56 µM	2.97 µM	0.377 µM	1.38 µM	1.35 µM	3.17 µM	–	–
CC1=NNC(=S)NCCCN2CCN(CCCNC(=S)NN=C(C)C=NNC(=S)NCCCN3CCN(CCCNC(=S)NN=C1)CC3)CC2	–	> 100 µM	–	> 100 µM	–	> 100 µM	–	–	–	> 100 µM	–	> 100 µM	–	> 100 µM	–	> 100 µM
Cc1ccc(S(=O)(=O)NC(=O)OC23COCN2COC3)cc1	–	> 100 µM	–	–	–	> 100 µM	–	> 100 µM	–	> 100 µM	–	> 100 µM	–	> 100 µM	–	> 100 µM
N#CC1C(N)=NNC12Nc1ccccc1S2 (stereo unspecified)	5.84 µM	20.3 µM	–	–	8.93 µM	28.7 µM	36.6 µM	> 100 µM	17.2 µM	64.2 µM	–	–	–	–	–	–
Cn1nc(-c2ccccc2)c(C(=O)/C=C/c2ccc(Cl)cc2)c(N2CCOCC2)c1=O	–	12.8 µM	–	7.1 µM	–	17.2 µM	–	12.2 µM	–	4.79 µM	–	–	–	6.79 µM	–	–
